{
  "source": "patent US20250067727A1",
  "about": "“BIOENGINEERED NEURONAL ORGANOIDS (BENOS) AND USES THEREOF” (Georg-August-Universität Göttingen Stiftung Öffentlichen …, priority 2017, published 2025)",
  "key": {"[1]": {"test_system": "bioengineered neuronal organoids (BENOs) from human pluripotent stem cells", "assay": "qPCR transcript analysis of neuronal and glia markers in BENOs", "assay_type": "cell-based", "set-up": "PAX6 transcripts: dose or concentration left out as unconfirmed", "experimental": "(§1) In initial attempts, single SMAD pathway inhibition (using noggin) was employed to elicit neural induction, along with the addition of retinoic acid (RA). In the present study, it was tested whether dual SMAD signaling pathway inhibition using noggin and SB431542 during the neural induction phase (days 0-8) might further enhance neurogenesis, e.g., at day 28. Accordingly, NCM containing only noggin, or NCM containing noggin and SB431542, were each investigated.\nNumerous conventional protocols in the literature employ neurotrophic factors BDNF and GDNF to improve neuronal survival at the differentiation and maturation stages. Therefore, it was tested whether the addition of BDNF (20 ng/ml) and GDNF (10 ng/ml) to NPEM during culture days 10-28 would result in a higher number of maturing neurons by day 28 (FIG. 4). […]\nIn all protocols, the differentiation was carried out in Neurobasal™ medium supplemented with B27 and N2. hiPS cells were subjected to neuroectoderm induction (days 0-8) under dual SMAD inhibition (noggin & SB431542) and additional retinoic acid (RA) supplementation to mimic signaling that occurs during embryonic neurogenesis. In protocol 2, the proliferative effects of FGF-2 (day 8-15) in neural progenitor cells (NPCs) were tested. In protocol 3, the effect of Notch inhibitor DAPT in neuronal commitment of NPCs (day 15-28) was tested. In protocol 4, the proliferative effects of TGF-beta 1 for glia cells (day 8-28) were tested. In protocol 5, TGF-beta 1 and DAPT treatments were combined in order to test whether development of glia and neurons can be enhanced simultaneously.\nIn order to assess the neurogenic and gliogenic potential afforded by the different protocols, tissues were collected at days −1, 0, 3, 8, 15, 28 and 40 (3-6 tissues/time point). Since the treatment until day 8 was identical for all protocols, tissues until that time point were only collected from protocol 1. […] Since treatment with DAPT (protocols 3 and 5) was evidently supporting neurogenesis and TGF-beta 1 appeared to support gliogenesis, the time course analysis was extended for protocol 3 (DAPT) and protocol 5 (DAPT and TGF-beta 1)."}, "[2]": {"test_system": "bioengineered neuronal organoids (BENOs) from human pluripotent stem cells", "assay": "whole mount immunofluorescence (neurofilament) analysis of BENOs", "assay_type": "cell-based", "experimental": "as §1\nConsequently, it appears advantageous to increase the amount of neural progenitor cells (NPCs) inside the tissue by treating the organoids with FGF-2 (days 8-15). This corresponds to the use of NPEM in the above protocol. To test whether the use of FGF-2 is favorable, tissues (3000 cell/μl) were treated with 10 ng/ml FGF-2 at two different time-points; day −2 to day 0 (before neural induction at the stem cell stage), and day 8 to day 15 at the NPC stage (FIG. 3B)."}, "[3]": {"test_system": "GABAergic network of BENOs (GABAR)", "assay": "calcium imaging of BENO neuronal network under GABAergic inhibition", "assay_type": "cell-based, human", "conditions": "for synchrony of the same neurons upon inhibitor washout: after picrotoxin 58 μM and saclofen 330 μM; for synchrony of previously spontaneously synchronized neurons under GABAR inhibition: picrotoxin 58 μM and saclofen 330 μM applied together, BENOs days 30-60, n=3, 4 pairs of cells", "experimental": "To test neuronal network activity, BENOs (days 30-60) were subjected to calcium imaging under GABAergic inhibition (carried out using picrotoxin, 58 μM; saclofen, 330 μM; n=3). GABAR inhibition led to an asynchrony of previously spontaneously synchronized neurons (4 pairs of cells)."}, "[4]": {"conditions": "protocols 3 and 5, DAPT day 15-28, time course"}, "[5]": {"conditions": "SB431542 added to noggin during neural induction (days 0-8) vs noggin only, n=4 tissues/group"}, "[6]": {"conditions": "BDNF (20 ng/ml) and GDNF (10 ng/ml) added together, culture days 10-28, analysed day 28"}},
  "data": [
    {"molecule": "C[C@H](NC(=O)Cc1cc(F)cc(F)c1)C(=O)NC(C(=O)OC(C)(C)C)c1ccccc1", "note": "(stereo partly shown) [DAPT]", "values": [
      {"measurement": "PAX6 transcripts", "setting": "[1]; DAPT added to NDM, day 15-28", "result": "increase"},
      {"measurement": "amount of the neuronal marker GABBR2", "setting": "[1]; [4]", "result": "significantly increased"},
      {"measurement": "amount of the neuronal marker GRIN1", "setting": "[1]; [4]", "result": "significantly increased"},
      {"measurement": "amount of the neuronal marker MAP2", "setting": "[1]; [4]", "result": "significantly increased"},
      {"measurement": "amount of the neuronal marker PAX 6", "setting": "[1]; [4]", "result": "significantly increased"}
    ]},
    {"molecule": "FGF-2: member of the fibroblast growth factor family, encoded by the FGF2 gene", "values": [
      {"measurement": "neurofilament staining, double treatment vs single treatment", "setting": "[2]; 10 ng/ml FGF-2, day -2-0 and days 8-15 vs days 8-15 only", "result": "did not seem to be advantageous"},
      {"measurement": "neurofilament staining, advantage compared to untreated tissues", "setting": "[2]; 10 ng/ml FGF-2, day -2 to day 0 (stem cell stage), read at day 28", "result": "did not appear to provide any advantage"},
      {"measurement": "neuronal network complexity at day 28 (IF whole mount staining of neurofilament)", "setting": "[2]; 10 ng/ml FGF-2, days 8-15", "result": "more complex neuronal networks"},
      {"measurement": "proliferation of the cells including NPCs", "setting": "[2]; 10 ng/ml FGF-2, days 8-15 (NPC stage)", "result": "markedly induced proliferation"},
      {"measurement": "level of different markers (OCT4, GFAP, PAX6, MAP2, GRIN1, GABBR2) at any time point", "setting": "[1]; protocol 2, FGF-2 day 8-15, time course days -1 to 40", "result": "did not significantly influence"}
    ]},
    {"molecule": "TGF-beta 1: transforming growth factor beta 1 (Peprotech)", "values": [
      {"measurement": "amount of the glia marker GFAP", "setting": "[1]; protocols 4 and 5, TGF-beta 1 day 8-28, by day 40, vs the other 3 protocols", "result": "higher amounts"}
    ]},
    {"molecule": "NCC(CS(=O)(=O)O)c1ccc(Cl)cc1", "note": "(stereo not shown) [saclofen]", "values": [
      {"measurement": "synchrony of the same neurons upon inhibitor washout", "setting": "[3]", "result": "re-synchronized"},
      {"measurement": "synchrony of previously spontaneously synchronized neurons under GABAR inhibition", "setting": "[3]", "result": "asynchrony"}
    ]},
    {"molecule": "picrotoxin", "values": [
      {"measurement": "synchrony of the same neurons upon inhibitor washout", "setting": "[3]", "result": "re-synchronized"},
      {"measurement": "synchrony of previously spontaneously synchronized neurons under GABAR inhibition", "setting": "[3]", "result": "asynchrony"}
    ]},
    {"molecule": "NC(=O)c1ccc(-c2nc(-c3ccc4c(c3)OCO4)c(-c3ccccn3)[nH]2)cc1", "note": "[SB431542]", "values": [
      {"measurement": "amount of maturing neurons (immunofluorescence and PAX6/MAP2 transcripts)", "setting": "[2]; dual SMAD inhibition, noggin and SB431542, days 0-8, vs noggin only, day 28", "result": "clearly observed to be advantageous"},
      {"measurement": "increase of neuronal marker MAP2 (qPCR)", "setting": "[1]; [5]", "result": 21, "unit": "fold"},
      {"measurement": "increase of neuronal marker PAX6 (qPCR)", "setting": "[1]; [5]", "result": 21, "unit": "fold"}
    ]},
    {"molecule": "BDNF: neurotrophic factor used to improve neuronal survival (protein, UniProt P23560 129-247, looked up, Neurotrophic factor BDNF) Neurotrophic factor BDNF: HSDPARRGELSVCDSISEWVTAADKKTAVDMSGGTVTVLEKVPVSKGQLKQYFYETKCNPMGYTKEGCRGIDKRHWNSQCRTTQSYVRALTMDSKKRIGWRFIRIDTSCVCTLTIKRGR", "values": [
      {"measurement": "amount of the maturation marker MAP2", "setting": "[1]; [6]", "result": "do not increase"},
      {"measurement": "amount of the neuronal marker PAX 6", "setting": "[1]; [6]", "result": "do not increase"}
    ]},
    {"molecule": "GDNF: neurotrophic factor used to improve neuronal survival (protein, UniProt P39905 78-211, looked up) Glial cell line-derived …: SPDKQMAVLPRRERNRQAAAANPENSRGKGRRGQRGKNRGCVLTAIHLNVTDLGLGYETKEELIFRYCSGSCDAAETTYDKILKNLSRNRRLVSDKVGQACCRPIAFDDDLSFLDDNLVYHILRKHSAKRCGCI", "values": [
      {"measurement": "amount of the maturation marker MAP2", "setting": "[1]; [6]", "result": "do not increase"},
      {"measurement": "amount of the neuronal marker PAX 6", "setting": "[1]; [6]", "result": "do not increase"}
    ]}
  ]
}
